Test results from US20220163532A1, “NUCLEAR-DERIVED EXOSOMES AND METHODS OF USE THEREOF” (Board of Regents, The University of Texas System, priority 2019, published 2022).

Assays:
ovarian cancer cells = assay: Nuclear proteins in exosomes from drug-treated ovarian cancer cells (Western blot); format: cell-based, human; conditions: topotecan 10 nM or olaparib 20 μM
Procedure: (§1) Isolation of exosomes. The isolation method for exosomes that was used in this study followed the standard methods of the International Society of Extracellular Vesicles (Witwer et al., 2013). Cell lines described above were grown in the corresponding medium described above until 60 to 70% confluence was achieved. Cells were then washed twice with phosphate-buffered saline (PBS) and grown in corresponding medium containing 1% exosome-free FBS (EXO-FBS-250A-1, System Biosciences) plus 0.1% gentamicin for 48 hours. For exosome isolation, the harvested medium underwent serial centrifugation. First, the medium was spun down at 500g for 10 min to pellet any floating cells. Next, the supernatant was collected and spun down at 2000g for 30 min to pellet any residual cell debris. The resulting supernatant was then filtered through a 0.22-μm filter (SCGPUO5RE and SLGP033RS, Millipore-Sigma) to remove any remaining large vesicles. After filtration, the medium was spun down at 40,000 rpm for 2 hours at 4° C. in an ultracentrifuge (Optima XE, Beckman Coulter) with a Ti 45 fixed-angle rotor (339160, Beckman Coulter). […] Exosome concentration and quantity were determined using NTA with a NanoSight NS300 instrument (Malvern Panalytical).
Western blotting. […] Protein concentration was determined using the Micro BCA Protein Assay Kit (23235, Thermo Fisher Scientific) according to the manufacturer's protocol. […]

[1] = tested on: OVCAR-5 and OVCAR-8 cells; assay: DNA-positive exosomes (nExo) from drug-treated ovarian cancer cells by imaging flow cytometry; format: cell-based, human; conditions: topotecan 10 nM or olaparib 20 μM, parental cells treated 48 hours, vs DMSO
Procedure: as §1, with “vesicles.” for “vesicles. After filtration, the medium was spun down at 40,000 rpm for 2 hours at 4° C. in an ultracentrifuge (Optima XE, Beckman Coulter) with a Ti 45 fixed-angle rotor (339160, Beckman Coulter).”
Exosome staining for imaging flow cytometry and analysis. For quantitative analysis and imaging flow cytometry of exosomes, the method described by Erdbrugger et al. (2014) using an Amnis ImageStreamX MarkII analyzer was adapted. […]

CC[C@@]1(O)C(=O)OCc2c1cc1n(c2=O)Cc2cc3c(CN(C)C)c(O)ccc3nc2-1 [topotecan]
population of exosomes containing nuclear proteins (ovarian cancer cells): increased
population of exosomes containing gDNA (proportion of nExo secreted) [1]: increased
